Data reported in ChEMBL document CHEMBL2074045, “Up-regulation of P-glycoprotein expression in rat liver cells by acute doxorubicin treatment” (Eur J Biochem, 1997).

Assays:
[1] = molecular target: Multidrug resistance protein 1a (Rattus norvegicus) (UniProt Q6PSM0); assay: TP_TRANSPORTER: Western in vitro, nonparenchymal ral liver epithelial cells; type: functional, tissue-based; conditions: Epithelial cell
[2] = molecular target: ATP-dependent translocase ABCB1 (Rattus norvegicus, UniProt P43245); assay: TP_TRANSPORTER: Northern blot in vitro, nonparenchymal ral liver epithelial cells; type: functional; conditions: epithelial cell
Chain of ATP-dependent translocase ABCB1 (P43245 whole entry): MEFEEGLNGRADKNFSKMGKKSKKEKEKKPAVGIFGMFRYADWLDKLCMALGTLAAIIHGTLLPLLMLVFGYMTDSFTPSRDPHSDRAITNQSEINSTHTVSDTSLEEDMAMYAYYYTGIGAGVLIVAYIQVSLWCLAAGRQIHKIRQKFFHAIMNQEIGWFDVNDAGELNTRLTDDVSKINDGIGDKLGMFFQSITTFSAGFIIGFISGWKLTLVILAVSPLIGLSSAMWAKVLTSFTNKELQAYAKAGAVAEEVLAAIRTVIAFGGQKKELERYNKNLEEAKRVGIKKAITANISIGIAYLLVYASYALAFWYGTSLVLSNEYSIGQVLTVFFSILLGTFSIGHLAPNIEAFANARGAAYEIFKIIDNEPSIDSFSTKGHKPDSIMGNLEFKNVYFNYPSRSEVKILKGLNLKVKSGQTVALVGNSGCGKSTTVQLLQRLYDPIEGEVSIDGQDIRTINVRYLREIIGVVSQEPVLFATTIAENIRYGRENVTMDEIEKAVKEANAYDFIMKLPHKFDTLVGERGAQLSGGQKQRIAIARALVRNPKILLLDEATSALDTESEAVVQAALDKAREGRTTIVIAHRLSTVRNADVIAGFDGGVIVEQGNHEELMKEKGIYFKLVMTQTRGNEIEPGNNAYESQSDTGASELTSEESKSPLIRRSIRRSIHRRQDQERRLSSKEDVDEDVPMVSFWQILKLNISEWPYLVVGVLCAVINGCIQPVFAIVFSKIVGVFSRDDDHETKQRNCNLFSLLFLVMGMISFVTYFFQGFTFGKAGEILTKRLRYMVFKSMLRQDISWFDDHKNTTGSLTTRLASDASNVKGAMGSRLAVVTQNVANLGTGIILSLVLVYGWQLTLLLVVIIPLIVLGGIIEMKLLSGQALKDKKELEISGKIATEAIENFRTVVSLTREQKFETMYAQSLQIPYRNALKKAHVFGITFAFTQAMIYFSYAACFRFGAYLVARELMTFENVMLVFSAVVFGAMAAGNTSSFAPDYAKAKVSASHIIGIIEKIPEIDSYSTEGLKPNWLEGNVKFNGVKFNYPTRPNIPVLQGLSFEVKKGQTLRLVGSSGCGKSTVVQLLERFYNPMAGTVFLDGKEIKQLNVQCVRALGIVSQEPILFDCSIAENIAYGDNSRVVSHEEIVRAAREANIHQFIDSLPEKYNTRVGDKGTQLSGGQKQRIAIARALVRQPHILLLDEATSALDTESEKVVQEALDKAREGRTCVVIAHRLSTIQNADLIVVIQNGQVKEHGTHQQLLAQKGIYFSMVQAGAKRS

Chain of Multidrug resistance protein 1a (Rattus norvegicus) (Q6PSM0 as listed by the source): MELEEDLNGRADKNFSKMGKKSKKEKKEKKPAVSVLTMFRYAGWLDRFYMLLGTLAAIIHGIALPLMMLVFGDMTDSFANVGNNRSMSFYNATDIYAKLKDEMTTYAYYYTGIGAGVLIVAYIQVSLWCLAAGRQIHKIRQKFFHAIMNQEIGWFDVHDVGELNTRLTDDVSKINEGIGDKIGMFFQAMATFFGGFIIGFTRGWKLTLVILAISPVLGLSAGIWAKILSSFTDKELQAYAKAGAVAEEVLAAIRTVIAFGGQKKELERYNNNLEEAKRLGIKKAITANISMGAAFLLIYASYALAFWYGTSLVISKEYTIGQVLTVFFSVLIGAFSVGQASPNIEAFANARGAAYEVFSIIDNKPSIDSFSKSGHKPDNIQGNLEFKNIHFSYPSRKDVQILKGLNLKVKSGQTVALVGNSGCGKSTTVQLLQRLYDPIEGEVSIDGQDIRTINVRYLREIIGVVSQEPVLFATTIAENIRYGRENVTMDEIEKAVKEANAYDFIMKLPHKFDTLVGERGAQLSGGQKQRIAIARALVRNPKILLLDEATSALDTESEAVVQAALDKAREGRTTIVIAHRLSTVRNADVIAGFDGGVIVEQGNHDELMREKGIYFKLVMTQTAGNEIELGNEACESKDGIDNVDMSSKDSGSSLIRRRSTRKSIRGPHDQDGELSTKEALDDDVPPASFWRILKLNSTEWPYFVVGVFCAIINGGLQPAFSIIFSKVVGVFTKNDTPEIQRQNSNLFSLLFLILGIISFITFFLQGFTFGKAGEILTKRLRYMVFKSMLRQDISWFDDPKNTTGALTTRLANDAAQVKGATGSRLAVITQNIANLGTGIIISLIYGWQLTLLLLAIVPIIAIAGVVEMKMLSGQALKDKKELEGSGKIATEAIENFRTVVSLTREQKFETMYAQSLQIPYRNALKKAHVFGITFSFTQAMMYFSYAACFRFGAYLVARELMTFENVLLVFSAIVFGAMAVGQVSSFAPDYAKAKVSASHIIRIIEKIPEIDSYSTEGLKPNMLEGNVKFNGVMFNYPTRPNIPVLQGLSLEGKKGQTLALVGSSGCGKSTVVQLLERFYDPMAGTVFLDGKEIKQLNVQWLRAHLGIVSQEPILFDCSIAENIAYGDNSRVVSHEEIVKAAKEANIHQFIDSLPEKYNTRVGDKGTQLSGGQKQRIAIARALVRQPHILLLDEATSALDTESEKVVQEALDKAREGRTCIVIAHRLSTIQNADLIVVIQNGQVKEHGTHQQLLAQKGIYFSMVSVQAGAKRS

- Activity [1]: inducer [+]
- Activity [2]: inducer [+]
SMILES: COc1cccc2c1C(=O)c1c(O)c3c(c(O)c1C2=O)C[C@@](O)(C(=O)CO)C[C@@H]3O[C@H]1C[C@H](N)[C@H](O)[C@H](C)O1 [DOXORUBICIN]
